Source: patent US20100093745A1, “THERAPEUTIC AGENT OR PROPHYLACTIC AGENT FOR DEMYELINATING DISEASE COMPRISING AMINO ALCOHOL DERIVATIVE AS ACTIVE INGREDIENT” (priority 2007, published 2010)

Test system: Mouse Experimental Autoimmune Encephalomyelitis (EAE) Model
Assay: Effect on a mouse experimental autoimmune encephalomyelitis (EAE) model
Format: in vivo
Settings: MBP-immunized mice, oral, once a day from the 5th day to 41st day after the immunization

## C[C@](N)(CO)CCCc1ccc(Sc2cccc(C(F)(F)F)c2)cc1Cl.Cl [compound 27, (R)-2-amino-5-[2-chloro-4-(3-trifluoromethylphenylthio)phenyl]-2-methylpentan-1-ol hydrochloride]
  administration dose showing maximum reaction (onset inhibition): 0.3 mg/kg
0.01 to 0.3 mg/kg, FIG. 1 and FIG. 2
  onset of disease (clinical symptom score, total score): inhibited the onset of disease dose-dependently
